From US20240109918A1, “HETEROCYCLIC COMPOUNDS AND USES THEREOF” (Kumquat Biosciences Inc., priority 2022, published 2024)

Tests used:
[1] = biological target: T1, KRASwt (Homo sapiens, UniProt P01116); experiment: Bio-Biochem-PPI-HTRF Ras-SOS1 interaction assay (KRAS wt); type: biochemical; conditions: 5 nM
T1 construct: made in house; host or cells: E. coli BL21 (DE3)
In short: (§1)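 HTRF readout (ex 337 nm; em 620 and 665 nm) after ≥~10 min incubation; IC50 fitted from 665/620 ratio. GST-K-Ras wt or G12D plus anti-GST-Eu(K), His-hSOS1 plus anti-6His-XL665; duplicate dilutions, 10 μM top.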

[2] = biological target: T2, KRASG12D (Homo sapiens, UniProt P01116, G12D); experiment: Bio-Biochem-PPI-HTRF Ras-SOS1 interaction assay (KRAS G12D); type: biochemical; conditions: 5 nM
T2 construct: made in house; host or cells: E. coli BL21 (DE3)
T2 sequence (P01116 1-188 isoform P01116-2 G12D): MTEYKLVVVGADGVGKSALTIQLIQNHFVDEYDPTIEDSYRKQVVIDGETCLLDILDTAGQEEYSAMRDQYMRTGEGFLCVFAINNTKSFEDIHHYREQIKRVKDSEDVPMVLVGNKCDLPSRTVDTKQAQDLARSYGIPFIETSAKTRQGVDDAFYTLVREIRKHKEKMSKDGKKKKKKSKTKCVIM
In short: as §1

T1 sequence (P01116 1-188 isoform P01116-2): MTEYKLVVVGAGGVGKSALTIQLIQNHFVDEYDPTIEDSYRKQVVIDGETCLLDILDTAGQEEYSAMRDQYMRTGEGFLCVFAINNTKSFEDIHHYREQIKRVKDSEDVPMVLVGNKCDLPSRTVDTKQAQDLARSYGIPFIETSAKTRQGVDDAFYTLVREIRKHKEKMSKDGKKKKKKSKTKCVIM

## N#Cc1c(N)sc2c(F)ccc(-c3c(Cl)cc4c(N5CCCCC6(CN(C(=O)C7CC78CCOC8)C6)C5)nc(OC[C@@]56CCCN5C[C@H](F)C6)nc4c3F)c12 (stereo partly drawn) [compound 267, 4-(4-(2-(5-oxaspiro[2.4]heptane-1-carbonyl)-2,6-diazaspiro[3.6]decan-6-yl)-6-chloro-8-fluoro-2-(((2R,7aS)-2-fluorotetrahydro-1H-pyrrolizin-7a(5H)-yl)methoxy)quinazolin-7-yl)-2-amino-7-fluorobenzo[b] thiophene-3-carbonitrile]
[1]
  IC50: < 5 µM
[2]
  IC50: < 5 µM

## CC(C)C(=O)N1CC2(CCCCN(c3nc(OC[C@@]45CCCN4C[C@H](F)C5)nc4c(F)c(-c5ccc(F)c6sc(N)c(C#N)c56)c(Cl)cc34)C2)C1 [compound 197, 2-amino-4-(6-chloro-8-fluoro-2-(((2R,7aS)-2-fluorotetrahydro-1H-pyrrolizin-7a(5H)-yl)methoxy)-4-(2-isobutyryl-2,6-diazaspiro[3.6]decan-6-yl)quinazolin-7-yl)-7-fluorobenzo[b]thiophene-3-carbonitrile]
[1]
  IC50: < 5 µM
[2]
  IC50: < 5 µM

## N#Cc1c(N)sc2c(F)ccc(-c3c(Cl)cc4c(N5CCCCC6(CN(C(=O)CC7CC7(F)F)C6)C5)nc(OC[C@@]56CCCN5C[C@H](F)C6)nc4c3F)c12 (stereo partly drawn) [compound 235, 2-amino-4-(6-chloro-4-(2-(2-(2,2-difluorocyclopropyl)acetyl)-2,6-diazaspiro[3.6]decan-6-yl)-8-fluoro-2-(((2R,7aS)-2-fluorotetrahydro-1H-pyrrolizin-7a(5H)-yl)methoxy)quinazolin-7-yl)-7-fluorobenzo[b]thiophene-3-carbonitrile]
[1]
  IC50: < 5 µM
[2]
  IC50: < 5 µM

## C[C@H](Oc1nc(N2CCCC3(CN(C(=O)N4CC(F)(F)C4)C3)C2)c2cc(Cl)c(-c3ccc(F)c4sc(N)c(C#N)c34)c(F)c2n1)[C@@H]1CCCN1C [compound 212, 2-amino-4-(6-chloro-4-(2-(3,3-difluoroazetidine-1-carbonyl)-2,6-diazaspiro[3.5]nonan-6-yl)-8-fluoro-2-((S)-1-((S)-1-methylpyrrolidin-2-yl)ethoxy)quinazolin-7-yl)-7-fluorobenzo[b]thiophene-3-carbonitrile]
[1]
  IC50: < 5 µM
[2]
  IC50: < 5 µM

## N#Cc1c(N)sc2c(F)ccc(-c3c(Cl)cc4c(N5CCCCC6(CN(C(=O)C7CC7(F)F)C6)C5)nc(OC[C@@]56CCCN5C[C@H](F)C6)nc4c3F)c12 (stereo partly drawn) [compound 154, 2-amino-4-(6-chloro-4-(2-(2,2-difluorocyclopropane-1-carbonyl)-2,6-diazaspiro[3.6]decan-6-yl)-8-fluoro-2-(((2R,7aS)-2-fluorotetrahydro-1H-pyrrolizin-7a(5H)-yl)methoxy)quinazolin-7-yl)-7-fluorobenzo[b]thiophene-3-carbonitrile]
[1]
  IC50: < 5 µM
[2]
  IC50: < 5 µM

## N#Cc1c(N)sc2c(F)ccc(-c3c(Cl)cc4c(N5CCOC6(CN(C(=O)[C@@H]7CC7(F)F)C6)C5)nc(OC[C@@]56CCCN5C[C@H](F)C6)nc4c3F)c12 [compound 217, 2-amino-4-(6-chloro-4-(2-((S)-2,2-difluorocyclopropane-1-carbonyl)-5-oxa-2,8-diazaspiro[3.5]nonan-8-yl)-8-fluoro-2-(((2R,7aS)-2-fluorotetrahydro-1H-pyrrolizin-7a(5H)-yl)methoxy)quinazolin-7-yl)-7-fluorobenzo[b]thiophene-3-carbonitrile]
[1]
  IC50: < 5 µM
[2]
  IC50: < 5 µM

## Nc1nc2c(-c3c(Cl)cc4c(N5CCNC6(CNC6)C5)nc(OC[C@@]56CCCN5C[C@H](F)C6)nc4c3F)ccc(F)c2s1 [compound 116, 4-(6-chloro-8-fluoro-2-(((2R,7aS)-2-fluorotetrahydro-1H-pyrrolizin-7a(5H)-yl)methoxy)-4-(2,5,8-triazaspiro[3.5]nonan-8-yl)quinazolin-7-yl)-7-fluorobenzo[d]thiazol-2-amine]
[1]
  IC50: < 5 µM
[2]
  IC50: < 5 µM

## N#Cc1c(N)sc2c(F)ccc(-c3c(Cl)cc4c(N5CCCCC6(CN(C(=O)C7CC7C(F)F)C6)C5)nc(OC[C@@]56CCCN5C[C@H](F)C6)nc4c3F)c12 (stereo partly drawn) [compound 287, 2-amino-4-(6-chloro-4-(2-(2-(difluoromethyl)cyclopropane-1-carbonyl)-2,6-diazaspiro[3.6]decan-6-yl)-8-fluoro-2-(((2R,7aS)-2-fluorotetrahydro-1H-pyrrolizin-7a(5H)-yl)methoxy)quinazolin-7-yl)-7-fluorobenzo[b]thiophene-3-carbonitrile]
[1]
  IC50: < 5 µM
[2]
  IC50: < 5 µM

## N#Cc1c(N)sc2c(F)ccc(-c3c(Cl)cc4c(N5CCOCC6(CN(C(=O)[C@H]7CC7(F)F)C6)C5)nc(OC[C@@]56CCCN5C[C@H](F)C6)nc4c3F)c12 [compound 247, 2-amino-4-(6-chloro-4-(2-((R)-2,2-difluorocyclopropane-1-carbonyl)-6-oxa-2,9-diazaspiro[3.6]decan-9-yl)-8-fluoro-2-(((2R,7aS)-2-fluorotetrahydro-1H-pyrrolizin-7a(5H)-yl)methoxy)quinazolin-7-yl)-7-fluorobenzo[b]thiophene-3-carbonitrile]
[1]
  IC50: < 5 µM
[2]
  IC50: < 5 µM

## N#CCC1(C(=O)N2CC3(CCCCN(c4nc(OC[C@@]56CCCN5C[C@H](F)C6)nc5c(F)c(-c6ccc(F)c7sc(N)c(C#N)c67)c(Cl)cc45)C3)C2)CCC1 [compound 216, 2-amino-4-(6-chloro-4-(2-(1-(cyanomethyl)cyclobutane-1-carbonyl)-2,6-diazaspiro[3.6]decan-6-yl)-8-fluoro-2-(((2R,7aS)-2-fluorotetrahydro-1H-pyrrolizin-7a(5H)-yl)methoxy)quinazolin-7-yl)-7-fluorobenzo[b]thiophene-3-carbonitrile]
[1]
  IC50: < 5 µM
[2]
  IC50: < 5 µM

## N#Cc1c(N)sc2c(F)ccc(-c3c(Cl)cc4c(N5CCCCC6(CN(C(=O)[C@]78COC[C@H]7C8(F)F)C6)C5)nc(OC[C@@]56CCCN5C[C@H](F)C6)nc4c3F)c12 [compound 240, 2-amino-4-(6-chloro-4-(2-((1R,5S)-6,6-difluoro-3-oxabicyclo[3.1.0]hexane-1-carbonyl)-2,6-diazaspiro[3.6]decan-6-yl)-8-fluoro-2-(((2R,7aS)-2-fluorotetrahydro-1H-pyrrolizin-7a(5H)-yl)methoxy)quinazolin-7-yl)-7-fluorobenzo[b]thiophene-3-carbonitrile]
[1]
  IC50: < 5 µM
[2]
  IC50: < 5 µM

## CC(C)(C(=O)N1CC2(CCCCN(c3nc(OC[C@@]45CCCN4C[C@H](F)C5)nc4c(F)c(-c5ccc(F)c6sc(N)c(C#N)c56)c(Cl)cc34)C2)C1)N1CCOCC1 [compound 266, 2-amino-4-(6-chloro-8-fluoro-2-(((2R,7aS)-2-fluorotetrahydro-1H-pyrrolizin-7a(5H)-yl)methoxy)-4-(2-(2-methyl-2-morpholinopropanoyl)-2,6-diazaspiro[3.6]decan-6-yl)quinazolin-7-yl)-7-fluorobenzo[b]thiophene-3-carbonitrile]
[1]
  IC50: < 5 µM
[2]
  IC50: < 5 µM

## N#Cc1c(N)sc2c(F)ccc(-c3c(F)c4nc(OC[C@@]56CCCN5C[C@H](F)C6)nc(N5CCCCC6(CN(C(=O)C(F)F)C6)C5)c4c(=O)n3C3CC3)c12 [compound 233, 2-amino-4-(6-cyclopropyl-4-(2-(2,2-difluoroacetyl)-2,6-diazaspiro [3.6]decan-6-yl)-8-fluoro-2-(((2R,7aS)-2-fluorotetrahydro-1H-pyrrolizin-7a(5H)-yl)methoxy)-5-oxo-5,6-dihydropyrido[4,3-d]pyrimidin-7-yl)-7-fluorobenzo[b]thiophene-3-carbonitrile]
[1]
  IC50: < 5 µM
[2]
  IC50: < 5 µM

## N#CCC(=O)N1CC2(CCCCN(c3nc(OC[C@@]45CCCN4C[C@H](F)C5)nc4c(F)c(-c5ccc(F)c6sc(N)c(C#N)c56)c(Cl)cc34)C2)C1 [compound 194, 2-amino-4-(6-chloro-4-(2-(2-cyanoacetyl)-2,6-diazaspiro[3.6]decan-6-yl)-8-fluoro-2-(((2R,7aS)-2-fluorotetrahydro-1H-pyrrolizin-7a(5H)-yl)methoxy)quinazolin-7-yl)-7-fluorobenzo[b]thiophene-3-carbonitrile]
[1]
  IC50: < 5 µM
[2]
  IC50: < 5 µM

## N#Cc1c(N)sc2c(F)ccc(-c3c(Cl)cc4c(N5CCCCC6(CN(C(=O)C7(C(F)F)CC7)C6)C5)nc(OC[C@@]56CCCN5C[C@H](F)C6)nc4c3F)c12 [compound 276, 2-amino-4-(6-chloro-4-(2-(1-(difluoromethyl)cyclopropane-1-carbonyl)-2,6-diazaspiro[3.6]decan-6-yl)-8-fluoro-2-(((2R,7aS)-2-fluorotetrahydro-1H-pyrrolizin-7a(5H)-yl)methoxy)quinazolin-7-yl)-7-fluorobenzo[b]thiophene-3-carbonitrile]
[1]
  IC50: < 5 µM
[2]
  IC50: < 5 µM

## N#Cc1c(N)sc2c(F)ccc(-c3c(Cl)cc4c(N5CCCC6(CN(C=O)C6)C5)nc(OC[C@@]56CCCN5C[C@H](F)C6)nc4c3F)c12 [compound 173, 2-amino-4-(6-chloro-8-fluoro-2-(((2R,7aS)-2-fluorotetrahydro-1H-pyrrolizin-7a(5H)-yl)methoxy)-4-(2-formyl-2,6-diazaspiro[3.5]nonan-6-yl)quinazolin-7-yl)-7-fluorobenzo[b]thiophene-3-carbonitrile]
[1]
  IC50: < 5 µM
[2]
  IC50: < 5 µM

## Nc1nc2c(-c3c(Cl)cc4c(N5CCOC6(C5)CN(S(=O)(=O)F)C6)nc(OC[C@@]56CCCN5C[C@H](F)C6)nc4c3F)ccc(F)c2s1 [compound 179, 8-(7-(2-amino-7-fluorobenzo[d]thiazol-4-yl)-6-chloro-8-fluoro-2-(((2R,7aS)-2-fluorotetrahydro-1H-pyrrolizin-7a(5H)-yl)methoxy)quinazolin-4-yl)-5-oxa-2,8-diazaspiro[3.5]nonane-2-sulfonyl fluoride]
[1]
  IC50: < 5 µM
[2]
  IC50: ≥ 5 µM
